Experimental data: patent US10668051B2, “Modulators of calcium release-activated calcium channel” (Rhizen Pharmaceuticals SA, priority 2009, dated 2020)
Counter-ions that a name gives are not always drawn.

Biological target: CRAC channels (Homo sapiens (Human), UniProt Q96D31)
Assay: In-vitro CRAC channel inhibition assay in Jurkat cells (thapsigargin-induced calcium influx)
Format: cell-based
Procedure: 1A. In-Vitro CRAC Channel Inhibition Assay in Jurkat Cells
Plate is incubated at 37° C./5% CO2 for 30 min followed by further 15 min incubation at room temperature. Test compounds (DMSO stocks diluted in Ca^2+ and Mg^2+ free Hanks buffer) at desired concentrations were added to the wells and incubated for 15 min. Thapsigargin (1 μM final concentration) was added to the wells and incubated for 15 min to inhibit the Sarco-endoplasmic reticulum Ca^2+ ATPase pump thereby depleting endoplasmic calcium and raising cytosolic calcium concentrations. Store-operated calcium entry was initiated by adding extracellular Ca^2+ to a final concentration of 1.8 mM. Fluorescence was monitored over 5 min on a plate reader (BMG Labtech., Germany) with excitation at 485 nm and; an emission wavelength at 520 nm. Data were analyzed using GraphPad Prism. IC50 for each compound was determined based on the percent inhibition of thapsigargin-induced calcium influx into cells.

Sequence of CRAC channels (Q96D31 whole entry): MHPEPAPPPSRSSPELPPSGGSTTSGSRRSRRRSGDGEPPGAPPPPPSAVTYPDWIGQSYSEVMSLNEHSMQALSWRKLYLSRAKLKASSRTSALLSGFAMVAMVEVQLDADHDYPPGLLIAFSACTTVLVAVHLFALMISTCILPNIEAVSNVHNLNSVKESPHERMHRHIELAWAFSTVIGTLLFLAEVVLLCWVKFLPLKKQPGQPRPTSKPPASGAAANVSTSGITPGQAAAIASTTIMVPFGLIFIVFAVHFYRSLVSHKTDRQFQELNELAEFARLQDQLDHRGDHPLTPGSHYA

Compound	inhibition at 1 µM	% inhibition (1 uM)
O=C(Nc1ccc(-n2nc(C3CC3)cc2C2CC2)cc1)c1ccncc1 [Example 15, N-[4-(3,5-dicyclopropyl-1H-pyrazol-1-yl)phenyl]isonicotinamide hydrochloride]	94%	–
O=C(Nc1ccc(-n2nc(C3CC3)cc2C2CC2)nc1)c1ccncc1F [Example 48, N-[6-(3,5-dicyclopropyl-1H-pyrazol-1-yl)pyridin-3-yl]-3-fluoroisonicotinamide]	12.3%	–
Cc1noc(C)c1C(=O)Nc1ccc(-n2nc(C3CC3)cc2C2CC2)c(F)c1 [Example 30, N-[4-(3,5-dicyclopropyl-1H-pyrazol-1-yl)-3-fluorophenyl]-3,5-dimethylisoxazole-4-carboxamide]	35.1%	–
CS(=O)(=O)c1ccc(Cl)c(C(=O)Nc2ccc(-n3nc(C(F)(F)F)cc3C3CC3)cc2)c1 [Example 65, 2-chloro-N-{4-[5-cyclopropyl-3-(trifluoromethyl)-1H-pyrazol-1-yl]phenyl}-5-(methylsulfonyl)benzamide]	97.9%	–
O=C(Nc1ccc(-n2nc(C3CC3)cc2C2CC2)c(F)c1)c1cccnc1 [Example 34, N-[4-(3,5-dicyclopropyl-1H-pyrazol-1-yl)-3-fluorophenyl]nicotinamide hydrochloride]	21.5%	–
O=C(Nc1ccc(-n2nc(C3CC3)cc2C2CC2)cc1)c1cccnc1 [Example 14, N-[4-(3,5-dicyclopropyl-1H-pyrazol-1-yl)phenyl]nicotinamide hydrochloride]	25.9%	–
Cl.O=C(Nc1ccc(-n2nc(C3CC3)cc2C2CC2)c(F)c1)c1ccncc1 [Example 35, N-[4-(3,5-dicyclopropyl-1H-pyrazol-1-yl)-3-fluorophenyl]isonicotinamde hydrochloride]	–	100%
O=C(Cc1cccnc1)Nc1ccc(-n2nc(C3CC3)cc2C2CC2)cc1 [Example 23, N-[4-(3,5-dicyclopropyl-1H-pyrazol-1-yl)phenyl]-2-(pyridin-3-yl)acetamide hydrochloride]	53.8%	–
Cc1ncncc1C(=O)Nc1ccc(-n2nc(C3CC3)cc2C2CC2)c(F)c1 [Example 36, N-[4-(3,5-dicyclopropyl-1H-pyrazol-1-yl)-3-fluorophenyl]-4-methylpyrimidine-5-carboxamide]	68.2%	–
Cc1nnsc1C(=O)Nc1ccc(-n2nc(C3CC3)cc2C2CC2)nc1 [Example 38, N-[6-(3,5-dicyclopropyl-1H-pyrazol-1-yl)pyridin-3-yl]-4-methyl-1,2,3-thiadiazole-5-carboxamide hydrochloride]	52.7%	–
CSc1ccc(Cl)c(C(=O)Nc2ccc(-n3nc(C(F)(F)F)cc3C3CC3)cc2)c1 [Example 64, 2-chloro-N-{4-[5-cyclopropyl-3-(trifluoromethyl)-1H-pyrazol-1-yl]phenyl}-5-(methylthio)benzamide]	100%	–
O=C(Nc1ccc(-n2nc(C3CC3)cc2C2CC2)nc1)c1c(F)cccc1F [Example 45, N-[6-(3,5-dicyclopropyl-1H-pyrazol-1-yl)pyridin-3-yl]-2,6-difluorobenzamide hydrochloride]	72.3%	–
Cc1ncsc1C(=O)N(C)c1ccc(-n2nc(C(F)(F)F)cc2C2CC2)cc1 [Example 54, N-{4-[5-cyclopropyl-3-(trifluoromethyl)-1H-pyrazol-1-yl]phenyl}-N,4-dimethylthiazole-5-carboxamide]	0%	–
CS(=O)(=O)c1ccc(C(=O)Nc2ccc(-n3nc(C4CC4)cc3C3CC3)cc2)cc1 [Example 11, N-[4-(3,5-dicyclopropyl-1H-pyrazol-1-yl)phenyl]-4-(methylsulfonyl)benzamide]	71.9%	–
Cc1oncc1C(=O)Nc1ccc(-n2nc(C3CC3)cc2C2CC2)cc1 [Example 4, N-[4-(3,5-dicyclopropyl-1H-pyrazol-1-yl)phenyl]-5-methylisoxazole-4-carboxamide]	100%	–
CS(=O)(=O)c1ccc(Cl)c(C(=O)Nc2ccc(-n3nc(C4CC4)cc3C3CC3)cc2)c1 [Example 13, 2-chloro-N-[4-(3,5-dicyclopropyl-1H-pyrazol-1-yl)phenyl)-5-(methylsulfonyl)benzamide]	37.2%	–
Cc1ncsc1C(=O)Nc1ccc(-n2nc(C(F)(F)F)c(Cl)c2C2CC2)cc1 [Example 80, N-{4-[4-chloro-5-cyclopropyl-3-(trifluoromethyl)-1H-pyrazol-1-yl]phenyl}-4-methylthiazole-5-carboxamide]	81.6%	–
O=C(Nc1cccc(F)c1F)c1ccc(-n2nc(C(F)(F)F)cc2C2CC2)nc1 [Example 121, 6-[5-cyclopropyl-3-(trifluoromethyl)-1H-pyrazol-1-yl]-N-(2,3-difluorophenyl)nicotinamide]	23.1%	–
Cc1noc(C)c1C(=O)Nc1ccc(-n2nc(C3CC3)cc2C2CC2)nc1 [Example 41, N-[6-(3,5-dicyclopropyl-1H-pyrazol-1-yl)pyridin-3-yl]-3,5-dimethylisoxazole-4-carboxamide]	0%	–
O=C(Nc1ccc(-n2nc(C3CC3)cc2C2CC2)c(F)c1)c1c(F)cccc1F [Example 33, N-[4-(3,5-dicyclopropyl-1H-pyrazol-1-yl)-3-fluorophenyl]-2,6-difluorobenzamide]	93.1%	–
O=C(Nc1ccc(-n2nc(C3CC3)cc2C2CC2)cc1)c1c(Cl)cncc1Cl [Example 17, 3,5-dichloro-N-(4-(3,5-dicyclopropyl-1H-pyrazol-1-yl)phenyl)isonicotinamide]	87.5%	–
O=C(Nc1ccc(-n2nc(C(F)(F)F)cc2C2CC2)nc1)c1c(Cl)cncc1Cl [Example 115, 3,5-dichloro-N-{6-[5-cyclopropyl-3-(trifluoromethyl)-1H-pyrazol-1-yl]pyridin-3-yl}isonicotmamide]	51.3%	–
O=C(Cc1ccc(F)cc1)Nc1ccc(-n2nc(C(F)(F)F)cc2C2CC2)cc1 [Example 70, N-{4-[5-cyclopropyl-3-(trifluoromethyl)-1H-pyrazol-1-yl]phenyl}-2-(4-fluorophenyl)acetamide]	68.9%	–
Cc1ncsc1C(=O)Nc1ccc(-n2nc(C3CC3)cc2C2CC2)nc1 [Example 39, N-[6-(3,5-dicyclopropyl-1H-pyrazol-1-yl)pyridin-3-yl]-4-methylthiazole-5-carboxamide hydrochloride]	41.3%	–
Cc1ncsc1C(=O)Nc1cnc(-n2nc(C(F)(F)F)cc2C2CC2)nc1 [Example 129, N-{2-[5-cyclopropyl-3-(trifluoromethyl)-1H-pyrazol-1-yl]pyrimidin-5-yl}-4-methyl thiazole-5-carboxamide]	28.3%	–
O=C(Nc1ccc(-n2nc(C(F)(F)F)cc2C2CC2)nc1)c1ccccc1Cl [Example 105, 2-chloro-N-{6-[5-cyclopropyl-3-(trifluoromethyl)-1H-pyrazol-1-yl]pyridin-3-yl}benzamide hydrochloride]	71.2%	–

Second part, led by results:

inhibition at 1 µM	Compound	% inhibition (1 uM)
19.4%	Cc1noc(C)c1C(=O)Nc1ccc(-n2nc(C(F)(F)F)cc2C2CC2)nc1 [Example 103, N-{6-[5-cyclopropyl-3-(trifluoromethyl)-1H-pyrazol-1-yl]pyridin-3-yl}-3,5-dimethylisoxazole-4-carboxamide]	–
76.6%	Cc1noc(C)c1C(=O)Nc1ccc(-n2nc(C(F)(F)F)cc2C2CC2)c(F)c1 [Example 85, N-{4-[5-cyclopropyl-3-(trifluoromethyl)-1H-pyrazol-1-yl]-3-nuorophenyl}-3,5-dimethylisoxazole-4-carboxamide]	–
97%	O=C(Nc1ccc(-n2nc(C(F)(F)F)cc2C2CC2)nc1)c1cccc(F)c1F [Example 107, N-{6-[5-cyclopropyl-3-(trifluoromethyl)-1H-pyrazol-1-yl]pyridin-3-yl}-2,3-difluorobenzamide]	–
85.6%	O=C(Nc1c(Cl)cccc1Cl)c1ccc(-n2nc(C(F)(F)F)cc2C2CC2)c(F)c1 [Example 98]	–
83.8%	Cc1noc(C)c1C(=O)Nc1ccc(-n2nc(C(F)(F)F)cc2C2CC2)cc1 [Example 57, N-{4-[5-cyclopropyl-3-(trifluoromethyl)-1H-pyrazol-1-yl]phenyl}-3,5-dimethylisoxazole-4-carboxamide]	–
78.4%	Cc1cccnc1C(=O)Nc1ccc(-n2nc(C(F)(F)F)cc2C2CC2)nc1 [Example 110, N-{6-[5-cyclopropyl-3-(trifluoromethyl)-1H-pyrazol-1-yl]pyridin-3-yl}-3-methylpicolinamide]	–
85.2%	Cc1ncoc1C(=O)Nc1ccc(-n2nc(C(F)(F)F)cc2C2CC2)c(F)c1 [Example 132, N-{4-[5-cyclopropyl-3-(trifluoromethyl)-1H-pyrazol-1-yl]-3-fluorophenyl}-4-methyloxazole-5-carboxamide]	–
100%	O=C(Nc1ccc(-n2nc(C(F)(F)F)cc2C2CC2)c(F)c1)c1cccnc1 [Example 89, N-{4-[5-cyclopropyl-3-(trifluoromethyl)-1H-pyrazol-1-yl]-3-fluorophenyl}nicotinamide hydrochloride]	–
100%	O=C(Nc1ccc(-n2nc(C(F)(F)F)cc2C2CC2)cc1)c1cccc(F)c1F [Example 61, N-{4-[5-cyclopropyl-3-(trifluoromethyl)-1H-pyrazol-1-yl]phenyl}-2,3-difluorobenzamide]	–
5.31%	Cc1ncncc1C(=O)Nc1cc(F)c(-n2nc(C(F)(F)F)cc2C2CC2)c(F)c1 [Example 130, N-{4-[5-cyclopropyl-3-(trifluoromethyl)-1H-pyrazol-1-yl]-3,5-difluorophenyl}-4-methylpyrimidine-5-carboxamide]	–
88.7%	O=C(Nc1ccc(-n2nc(C(F)(F)F)cc2C2CC2)nc1)c1ccncc1F [Example 114, N-{6-[5-cyclopropyl-3-(trifluoromethyl)-1H-pyrazol-1-yl]pyridin-3-yl}-3-fluoroisonicotinamide]	–
